Data reported in patent publication US11964943B2, “3,5-diarylidenyl-n-substituted-piperid-4-one-derived inhibitors of Stat3 pathway activity and uses thereof” (priority 2017, dated 2024).

Assays:
Type in all cases: cell-based
[1] = test system: A2780-cisplatin resistant spheroids; assay: CellTiter-Glo 3D cell viability assay, A2780-cisplatin resistant spheroids; settings: 96 h exposure, 3D CellTiter-Glo
Protocol: For cell spheroid formation, HCT116-oxaliplatin resistant cells, A2780-cisplatin resistant cells, and HT1080 cells were seeded in Corning® Spheroid opaque-walled 96 well Microplates (ultra-low attachment; Nuclon™ Sphera™, Thermofisher) at densities of 2000 cells/well in 100 μl of cell solution and allowed to grow for 4 days, before any manipulation.
At the end of drug incubation, both the plates and the CellTitre-Glo® reagent (previously thawn overnight in the fridge) were equilibrated at room temperature for at least 30 min. Subsequently, 100 μl of cell solution were carefully removed from each well, without disrupting the spheroid and equal volume of CellTitre-Glo® reagent was added. Cell lysis was performed by vigorously shaking the plate for 5 min. To stabilize the luminescent signal, the plate was incubated in the dark at RT for another 30 min before luminescence was recorded on a plate reader. The cell viability of treated samples was normalised to the untreated controls.
The cytotoxicity studies in spheroids were conducted using the CellTiter-Glo® 3D Cell viability assay (Promega) following the instructions of the manufacturer.

[2] = test system: survivin, Bcl-2, Bcl-xL, MMP-9, cleaved PARP, cleaved caspase-3; assay: Immunoblotting of Stat3 downstream targets and apoptosis markers
Protocol: (§1) Whole cell lysates were prepared by incubation of harvested, trypsinised cells with CelLytic™ lysis buffer (Sigma-Aldrich) supplemented with 1× protease and 1× phosphatase inhibitors (Roche). Protein quantification was carried out using a protein assay kit (Bio-Rad). 40 μg of the lysates were denatured by heating for 5 min at 95° C. in sample buffer containing 100 mM Tris-Cl (pH 6.8), 4% SDS, 10% 2-mercaptoethanol, 20% glycerol, and 0.02% bromophenol blue. Precision Plus Protein Dual colour standards (Bio-Rad) were used as a molecular weight reference. For the detection of STAT3, pSTAT3, α/β tubulin, cleaved PARP, Bcl-2, Bcl-xL, FANCD2, BRCA1, EME1 and MUS81, proteins were separated on a NuPAGE 7% Tris-acetate gel (Life Technologies) and subsequently transferred to polyvinylidene difluoride membranes (Immobilon®-P transfer membrane; Millipore). […] Membranes were blocked for 1 h at ambient temperature in a blocking buffer containing 5% w/v Bovine Serum Albumin (BSA; Sigma-Aldrich) in 1×TBS, 0.1% Tween-20. All proteins were identified by incubation in a 1:1000 dilution of the respective polyclonal antibodies (Cell signaling) in blocking buffer overnight at 4° C. and subsequent incubation for 1 h with an anti-rabbit or anti-mouse secondary antibody (Cell signalling) at a dilution of 1:1000. The α/β tubulin (1:2000; Cell Signaling) and the anti-phospho-histone H2AX Antibody (1:500; Millipore) were used in the denoted dilutions. Antibody binding was visualized by enhanced chemiluminescence (Amersham) on autoradiography film (Kodak-X-Omat). Alternatively Images were captured by the GelDoc-It Imaging System Fusion Fx7 (Vilber Lourmat, Germany).
as §1, with “Immunoblotting. Whole” for “Whole”, “CelLytic™ M” for “CelLytic™”, “pSTAT3, a/0” for “pSTAT3, α/β”, “in 1×TBS” for “in 1×TBS,”, “(Cell signalling)” for “(Cell signaling)”

nuclear Stat3 = assay: Confocal microscopy of Stat3 localisation; settings: DU145, 5 μM, 5 h
Protocol: For Stat3, pStat3 staining, 2.5×10^4 cells/ml were plated on 13-mm glass cover slip (VWR) in 24 well plates, allowed to adhere and processed the next day. […] Cells were blocked in PBS 5% BSA for 1 h at ambient temperature. Respective proteins were identified by incubation for 4 h with anti-Stat3 and anti-pStat3 rabbit polyclonal antibodies (1:1000, Cell signalling) or anti-phospho-Histone H2A.X mouse monoclonal (1:500; Millipore) diluted in a PBS 1% BSA buffer. Cells were incubated with a secondary fluorescent conjugated antibody Alexa Fluor 488 (1:500; Life Technologies) for 2 h at RT. […]
(§2) Cell nuclei and protein levels were visualized by confocal microscopy (objective ×40, Leica TCS SP2). […] In the case of IE-8 detection only, the blue fluorescent agent was excited with a UV-laser (364 nm) and detected using the DAPI filter. PI was excited with the 488 line of an argon-ion laser and detected at 642 nm. The fluorescence of IE-8 was detected and imaged by z-stack acquisition using the Leica SP2 microscope software. […]
as §2, with “Confocal microscopy.” for “Cell nuclei and protein levels were visualized by confocal microscopy (objective ×40, Leica TCS SP2).”, “8 h” for “IE-8”

[3] = A2780-cisplatin resistant cells

COc1cc(/C=C2\CN(c3ccccc3)C/C(=C\c3cc(OC)c(OC)c(OC)c3)C2=O)cc(OC)c1OC [IE-8, 3,5-Di(3,4,5-trimethoxybenzylidene)-1-phenylpiperidin-4-one]
IC50 [1]: 3.01 ± 0.41 µM | induction of apoptosis (cleaved PARP, cleaved caspase 3, Annexin-V/PI) [2, 3]: induced apoptosis | inhibition of downstream Stat3 targets Bcl-xL and survivin [2, 3]: capable of inhibiting | downregulation of MMP-9 ([2]; A2780-cisplatin resistant cells, IL-6 stimulated): downregulates the matrix metalloproteinase MMP-9 | induction of apoptosis (cleaved PARP) ([2]; DU145 and A549 cells, 18 h): induced cell death via apoptosis | downregulation of survivin and Bcl-2 ([2]; DU145 cells, 18 h): downregulated the transcription of key Stat3 target genes | levels of nuclear Stat3 (nuclear Stat3): the levels of nuclear Stat3 were decreased
